Measurements published in a compilation of properties of binary mixtures (doi:10.1016/j.jct.2017.07.022).

Assay: xn = mol fraction of the nth substance listed
Details: 100 kPa

CC[n+]1ccccc1.N#C[N-]C#N + CC(C)O
viscosity [mPa·s]
Details | x2 = 0 | x2 = 0.1055 | x2 = 0.1999 | x2 = 0.2997 | x2 = 0.4023 | x2 = 0.499 | x2 = 0.5998 | x2 = 0.7006 | x2 = 0.8007 | x2 = 0.8997
288.15 K | 25.9 | 21.3 | 18.3 | – | 12.3 | 10 | 8.04 | 6.15 | 4.78 | 3.75
293.15 K | 22.1 | – | 15.6 | 12.9 | 10.7 | 8.68 | 7.02 | 5.39 | 4.18 | 3.28
298.15 K | 18.9 | 15.6 | 13.4 | 11.2 | – | 7.61 | 6.19 | 4.77 | 3.7 | 2.89
303.15 K | 16.4 | 13.5 | 11.6 | 9.83 | 8.17 | 6.72 | – | 4.24 | 3.29 | 2.55
308.15 K | 14.3 | 11.7 | 10.1 | 8.69 | 7.24 | 6 | 4.91 | – | 2.95 | –
313.15 K | – | 10.3 | 8.9 | 7.72 | 6.47 | 5.38 | – | – | – | 2.03
318.15 K | 11 | 9.08 | 7.9 | 6.92 | 5.82 | 4.85 | – | – | 2.41 | 1.83

CC[n+]1ccccc1.N#C[N-]C#N + CCCO
viscosity [mPa·s]
Details | x2 = 0 | x2 = 0.1095 | x2 = 0.1947 | x2 = 0.3011 | x2 = 0.4029 | x2 = 0.5008 | x2 = 0.6003 | x2 = 0.702 | x2 = 0.8012 | x2 = 0.9
288.15 K | 25.9 | – | – | 15.2 | 12 | 9.7 | 7.73 | 5.99 | – | 3.48
293.15 K | – | 17.7 | 15.3 | – | 10.4 | 8.45 | 6.78 | 5.28 | – | 3.09
298.15 K | 18.9 | 15.3 | 13.1 | 11.7 | 9.11 | – | 6 | 4.7 | 3.61 | –
303.15 K | 16.4 | 13.2 | 11.3 | 10.3 | – | 6.6 | 5.34 | – | 3.24 | 2.48
308.15 K | 14.3 | 11.4 | – | 9.11 | 7.14 | – | 4.79 | 3.78 | – | –
313.15 K | 12.5 | 9.9 | – | 8.13 | 6.39 | – | 4.33 | 3.42 | 2.65 | 2.03
318.15 K | – | 8.74 | 7.85 | 7.35 | 5.76 | – | 3.93 | – | 2.42 | –
